Test results reported in ChEMBL document CHEMBL3351418, “In vitro induction of apoptosis by isosclerone from marine-derived fungus Aspergillus fumigatus” (Bioorg Med Chem Lett, 2014).
Active and inactive are the calls of the source.

Tests used:
MCF7 [1] = assay: Induction of apoptosis in human MCF7 cells assessed as down-regulation of Bcl-2 protein expression at 20 to 60 uM after 24 hrs by Western blot analysis; type: functional, cell-based
MCF7 [2] = assay: Induction of apoptosis in human MCF7 cells assessed as increase in caspase-9 expression by Western blot analysis; type: functional, cell-based
[3] = molecular target: Apoptosis regulator Bcl-2 (Homo sapiens, UniProt P10415); assay: Binding affinity to Bcl-2 (unknown origin)
Sequence of Apoptosis regulator Bcl-2 (P10415 whole entry): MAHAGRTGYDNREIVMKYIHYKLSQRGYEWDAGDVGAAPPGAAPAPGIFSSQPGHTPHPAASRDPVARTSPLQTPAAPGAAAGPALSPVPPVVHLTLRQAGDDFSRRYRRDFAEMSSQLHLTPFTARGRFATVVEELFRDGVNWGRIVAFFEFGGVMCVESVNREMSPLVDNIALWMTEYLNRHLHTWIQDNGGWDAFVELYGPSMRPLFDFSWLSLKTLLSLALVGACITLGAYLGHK

MCF7 [4] = assay: Downregulation of Akt protein expression in human MCF7 cells at 20 to 60 uM by Western blot analysis; type: functional, cell-based
MCF7 [5] = assay: Induction of apoptosis in human MCF7 cells assessed as increase in caspase-8 expression by Western blot analysis; type: functional, cell-based
MCF7 [6] = assay: Induction of apoptosis in human MCF7 cells assessed as increase in caspase-3 expression by Western blot analysis; type: functional, cell-based
MCF7 [7] = assay: Inhibition of P65 protein expression in human MCF7 cells after 24 hrs by Western blot analysis; type: functional, cell-based
MCF7 [8] = assay: Cytotoxicity against human MCF7 cells assessed as cell viability at 60 uM after 36 hrs by MTT assay (Rvb =100%); type: functional; details: MCF7, 36 h, read-out: Activity
MCF7 [9] = assay: Downregulation of PI3K protein expression in human MCF7 cells at 20 to 60 uM by Western blot analysis; type: functional, cell-based
MCF7 [10] = assay: Cytotoxicity against human MCF7 cells assessed as cell viability at 20 uM after 36 hrs by MTT assay (Rvb =100%); type: functional; details: MCF7, 36 h, read-out: Activity
MCF7 [11] = assay: Induction of apoptosis in human MCF7 cells assessed as increase in mitochondrial Apaf-1 release at 20 to 60 uM after 24 hrs by Western blot analysis; type: functional, cell-based
MCF7 [12] = assay: Induction of apoptosis in human MCF7 cells assessed as increase in caspase-3 gene expression by RT-PCR analysis; type: functional, cell-based
MCF7 [13] = assay: Cytotoxicity against human MCF7 cells assessed as cell viability at 40 uM after 36 hrs by MTT assay (Rvb =100%); type: functional; details: MCF7, 36 h, read-out: Activity
MCF7 [14] = assay: Induction of apoptosis in human MCF7 cells assessed as increase in mitochondrial cytochrome C release at 20 to 60 uM after 24 hrs by Western blot analysis; type: functional, cell-based
MCF7 [15] = assay: Effect on phosphorylation of Akt in human MCF7 cells at 20 to 60 uM by Western blot analysis; type: cell-based
MCF7 [16] = assay: Induction of apoptosis in human MCF7 cells assessed as up-regulation of Bax protein expression at 20 to 60 uM after 24 hrs by Western blot analysis; type: functional, cell-based
MCF7 [17] = assay: Induction of apoptosis in human MCF7 cells assessed as increase in DNA damage after 24 hrs by Hoechst staining based inverted fluorescent microscopy; type: functional, cell-based
Caspase-3 = molecular target: T1, Caspase-3 (Homo sapiens, UniProt P42574); assay: Binding affinity to procaspase-3 (unknown origin)
T1 sequence (P42574 whole entry): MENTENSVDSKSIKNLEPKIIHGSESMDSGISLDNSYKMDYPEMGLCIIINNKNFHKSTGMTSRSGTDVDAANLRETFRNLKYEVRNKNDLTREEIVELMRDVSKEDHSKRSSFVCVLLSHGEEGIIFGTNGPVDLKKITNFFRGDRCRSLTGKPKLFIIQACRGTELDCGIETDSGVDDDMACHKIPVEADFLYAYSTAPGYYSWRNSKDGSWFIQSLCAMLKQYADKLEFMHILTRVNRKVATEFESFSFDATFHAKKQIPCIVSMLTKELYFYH

MCF7 [18] = assay: Induction of apoptosis in human MCF7 cells assessed as increase in caspase-8 gene expression by RT-PCR analysis; type: functional, cell-based
MCF7 [19] = assay: Cytotoxicity against human MCF7 cells assessed as cell viability at 40 uM after 24 hrs by MTT assay (Rvb =100%); type: functional; details: MCF7, 24 h, read-out: Activity
[20] = molecular target: T2, Inhibitor of nuclear factor kappa-B kinase subunit beta (Homo sapiens) (UniProt O14920); assay: Inhibition of human IKKbeta activation in human MCF7 cells by Western blot analysis; type: cell-based
T2 sequence (whole entry): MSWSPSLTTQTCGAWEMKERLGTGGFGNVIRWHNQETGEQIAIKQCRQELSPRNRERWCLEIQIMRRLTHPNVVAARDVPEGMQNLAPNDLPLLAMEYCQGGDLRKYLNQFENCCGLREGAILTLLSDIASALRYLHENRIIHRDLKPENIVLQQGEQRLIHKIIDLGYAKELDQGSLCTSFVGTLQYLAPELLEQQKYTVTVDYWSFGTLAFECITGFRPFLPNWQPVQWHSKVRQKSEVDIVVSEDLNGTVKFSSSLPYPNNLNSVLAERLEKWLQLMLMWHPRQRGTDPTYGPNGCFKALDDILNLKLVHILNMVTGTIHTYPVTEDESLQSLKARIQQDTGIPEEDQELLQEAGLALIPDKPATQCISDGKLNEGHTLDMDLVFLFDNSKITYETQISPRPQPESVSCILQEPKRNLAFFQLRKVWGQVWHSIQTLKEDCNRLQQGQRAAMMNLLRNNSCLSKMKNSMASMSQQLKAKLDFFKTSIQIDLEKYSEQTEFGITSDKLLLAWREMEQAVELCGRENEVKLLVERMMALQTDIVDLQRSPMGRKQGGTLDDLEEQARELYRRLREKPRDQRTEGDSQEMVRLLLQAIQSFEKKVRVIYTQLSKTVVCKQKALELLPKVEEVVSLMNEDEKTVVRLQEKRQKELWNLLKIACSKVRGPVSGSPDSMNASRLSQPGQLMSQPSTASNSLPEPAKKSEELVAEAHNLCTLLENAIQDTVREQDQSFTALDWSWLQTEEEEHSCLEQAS

[21] = molecular target: T3, Inhibitor of nuclear factor kappa-B kinase subunit alpha (Homo sapiens) (UniProt O15111); assay: Inhibition of human IKK expression in human MCF7 cells after 24 hrs by Western blot analysis; type: cell-based
T3 sequence (whole entry): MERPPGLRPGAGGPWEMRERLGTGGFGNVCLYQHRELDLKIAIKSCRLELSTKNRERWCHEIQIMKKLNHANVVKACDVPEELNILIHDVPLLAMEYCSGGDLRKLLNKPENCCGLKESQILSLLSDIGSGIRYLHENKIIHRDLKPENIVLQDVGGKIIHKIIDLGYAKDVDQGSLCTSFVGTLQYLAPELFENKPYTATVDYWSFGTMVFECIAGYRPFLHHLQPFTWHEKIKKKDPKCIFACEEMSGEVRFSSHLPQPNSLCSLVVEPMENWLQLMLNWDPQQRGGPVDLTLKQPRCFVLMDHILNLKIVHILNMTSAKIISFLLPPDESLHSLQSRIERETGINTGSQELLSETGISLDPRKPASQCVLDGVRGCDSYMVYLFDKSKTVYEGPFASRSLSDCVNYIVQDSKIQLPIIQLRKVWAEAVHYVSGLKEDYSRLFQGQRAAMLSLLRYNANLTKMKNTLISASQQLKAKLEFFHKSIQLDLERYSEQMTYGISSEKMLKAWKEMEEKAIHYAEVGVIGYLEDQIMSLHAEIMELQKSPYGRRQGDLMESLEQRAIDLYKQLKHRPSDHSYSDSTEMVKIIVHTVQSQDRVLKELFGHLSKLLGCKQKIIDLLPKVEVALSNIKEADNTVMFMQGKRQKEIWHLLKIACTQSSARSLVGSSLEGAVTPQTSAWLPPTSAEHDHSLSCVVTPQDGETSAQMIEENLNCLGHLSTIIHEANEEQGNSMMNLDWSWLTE

MCF7 [22] = assay: Cytotoxicity against human MCF7 cells assessed as cell viability at 20 uM after 24 hrs by MTT assay (Rvb =100%); type: functional; details: MCF7, 24 h, read-out: Activity
MCF7 [23] = assay: Cytotoxicity against human MCF7 cells assessed as cell viability at 20 uM by MTT assay; type: functional, cell-based; details: TDE = time-dependent effect
MCF7 [24] = assay: Downregulation of PI3K gene expression in human MCF7 cells at 20 to 60 uM by RT-PCR analysis; type: functional, cell-based
MCF7 [25] = assay: Cytotoxicity against human MCF7 cells assessed as cell viability at 60 uM after 24 hrs by MTT assay (Rvb =100%); type: functional; details: MCF7, 24 h, read-out: Activity
MCF7 [26] = assay: Inhibition of P50 protein expression in human MCF7 cells after 24 hrs by Western blot analysis; type: functional, cell-based
[27] = molecular target: T3, Inhibitor of nuclear factor kappa-B kinase subunit alpha (Homo sapiens); assay: Inhibition of human IKKalpha activation in human MCF7 cells by Western blot analysis; type: cell-based
[28] = molecular target: Nuclear factor NF-kappa-B complex (Homo sapiens) (UniProt Q00653+P19838+Q04206); assay: Inhibition of NF-kappaB activation in human MCF7 cells; type: cell-based
Sequence of Nuclear factor NF-kappa-B complex (Homo sapiens) (P19838 whole entry, looked up): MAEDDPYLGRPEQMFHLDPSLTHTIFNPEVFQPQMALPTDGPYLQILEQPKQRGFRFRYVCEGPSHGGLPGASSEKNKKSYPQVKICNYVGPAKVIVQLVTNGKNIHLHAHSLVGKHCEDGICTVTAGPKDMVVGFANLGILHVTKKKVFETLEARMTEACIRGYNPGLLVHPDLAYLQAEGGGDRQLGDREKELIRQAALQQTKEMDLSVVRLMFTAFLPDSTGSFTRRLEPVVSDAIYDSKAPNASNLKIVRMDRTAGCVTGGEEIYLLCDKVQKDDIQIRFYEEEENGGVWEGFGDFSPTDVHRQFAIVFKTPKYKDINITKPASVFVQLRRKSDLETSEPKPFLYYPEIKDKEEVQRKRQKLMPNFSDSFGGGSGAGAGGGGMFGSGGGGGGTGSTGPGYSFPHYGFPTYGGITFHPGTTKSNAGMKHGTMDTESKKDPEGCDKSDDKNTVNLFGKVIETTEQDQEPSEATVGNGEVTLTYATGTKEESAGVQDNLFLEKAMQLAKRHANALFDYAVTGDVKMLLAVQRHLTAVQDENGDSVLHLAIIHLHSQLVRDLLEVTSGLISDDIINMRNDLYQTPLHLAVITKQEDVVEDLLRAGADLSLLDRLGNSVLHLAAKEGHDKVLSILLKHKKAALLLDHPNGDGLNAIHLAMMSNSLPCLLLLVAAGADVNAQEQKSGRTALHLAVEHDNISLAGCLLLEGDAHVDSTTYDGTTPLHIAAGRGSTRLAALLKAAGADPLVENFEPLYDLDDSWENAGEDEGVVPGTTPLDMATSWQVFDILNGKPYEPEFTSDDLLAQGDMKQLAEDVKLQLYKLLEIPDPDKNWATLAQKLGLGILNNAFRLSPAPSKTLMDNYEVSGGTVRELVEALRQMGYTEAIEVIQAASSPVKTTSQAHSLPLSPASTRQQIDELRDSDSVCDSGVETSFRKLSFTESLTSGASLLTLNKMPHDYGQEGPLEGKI
Sequence of Nuclear factor NF-kappa-B complex (Homo sapiens) (Q00653 whole entry, looked up): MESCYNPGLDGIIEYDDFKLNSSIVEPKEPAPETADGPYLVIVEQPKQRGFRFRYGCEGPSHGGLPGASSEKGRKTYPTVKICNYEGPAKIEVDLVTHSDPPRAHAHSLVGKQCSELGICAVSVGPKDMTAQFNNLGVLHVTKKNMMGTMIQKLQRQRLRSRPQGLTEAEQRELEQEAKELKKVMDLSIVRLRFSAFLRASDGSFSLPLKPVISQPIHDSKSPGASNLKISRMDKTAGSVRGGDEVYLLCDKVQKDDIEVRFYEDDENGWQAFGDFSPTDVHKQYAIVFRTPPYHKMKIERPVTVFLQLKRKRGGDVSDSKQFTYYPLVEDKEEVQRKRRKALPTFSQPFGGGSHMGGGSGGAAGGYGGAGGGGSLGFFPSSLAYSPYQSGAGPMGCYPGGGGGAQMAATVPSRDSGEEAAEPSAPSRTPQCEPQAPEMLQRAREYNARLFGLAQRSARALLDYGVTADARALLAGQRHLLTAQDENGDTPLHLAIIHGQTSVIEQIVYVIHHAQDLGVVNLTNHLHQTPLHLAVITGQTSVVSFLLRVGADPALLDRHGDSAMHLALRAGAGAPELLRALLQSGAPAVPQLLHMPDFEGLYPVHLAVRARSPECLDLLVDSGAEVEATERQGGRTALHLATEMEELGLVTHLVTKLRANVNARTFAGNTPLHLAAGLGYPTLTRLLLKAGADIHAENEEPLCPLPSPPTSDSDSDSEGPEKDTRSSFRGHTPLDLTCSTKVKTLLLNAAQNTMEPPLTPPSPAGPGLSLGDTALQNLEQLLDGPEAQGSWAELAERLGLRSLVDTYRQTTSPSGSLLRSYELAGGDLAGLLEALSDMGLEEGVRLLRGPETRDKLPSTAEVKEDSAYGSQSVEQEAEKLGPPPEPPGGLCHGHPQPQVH
Sequence of Nuclear factor NF-kappa-B complex (Homo sapiens) (Q04206 whole entry, looked up): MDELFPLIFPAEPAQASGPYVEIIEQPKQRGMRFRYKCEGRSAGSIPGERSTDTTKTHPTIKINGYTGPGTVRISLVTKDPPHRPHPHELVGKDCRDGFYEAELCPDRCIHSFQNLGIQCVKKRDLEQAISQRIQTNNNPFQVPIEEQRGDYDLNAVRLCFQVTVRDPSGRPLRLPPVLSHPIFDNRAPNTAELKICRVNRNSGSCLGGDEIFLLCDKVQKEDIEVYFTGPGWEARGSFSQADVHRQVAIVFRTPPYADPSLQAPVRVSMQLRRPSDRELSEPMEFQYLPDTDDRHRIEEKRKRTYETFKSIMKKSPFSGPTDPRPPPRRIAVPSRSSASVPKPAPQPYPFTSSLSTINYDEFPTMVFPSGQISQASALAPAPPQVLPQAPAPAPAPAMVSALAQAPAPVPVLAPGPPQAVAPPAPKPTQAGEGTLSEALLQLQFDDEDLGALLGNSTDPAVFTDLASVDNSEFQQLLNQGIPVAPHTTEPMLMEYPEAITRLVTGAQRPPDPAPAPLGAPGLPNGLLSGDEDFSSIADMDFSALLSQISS

MCF7 [29] = assay: Downregulation of Akt gene expression in human MCF7 cells at 20 to 60 uM by RT-PCR analysis; type: functional, cell-based
MCF7 [30] = assay: Induction of apoptosis in human MCF7 cells assessed as increase in caspase-9 gene expression by RT-PCR analysis; type: functional, cell-based
MCF7 [31] = assay: Induction of apoptosis in human MCF7 cells assessed as increase in DNA fragmentation […] by agarose gel electrophoresis; type: functional, cell-based
MCF7 [32] = assay: Induction of apoptosis in human MCF7 cells assessed as up-regulation of Bax gene expression at 20 to 60 uM after 24 hrs by RT-PCR analysis; type: functional, cell-based
MCF7 [33] = assay: Cytotoxicity against human MCF7 cells assessed as cell viability after 24 to 36 hrs by MTT assay; type: functional, cell-based

O=C1CC[C@H](O)c2cccc(O)c21
97%: viability at 20 µM (MCF7 [22])
70%: viability at 60 µM (MCF7 [25])
66%: viability at 40 µM (MCF7 [13])
active: inhibition (MCF7 [1]) | Activity (MCF7 [2]) Dose-dependent effect | inhibition (MCF7 [4]) | Activity (MCF7 [5]) Dose-dependent effect | Activity (MCF7 [6]) Dose-dependent effect | inhibition (MCF7 [7]) Dose-dependent effect | inhibition (MCF7 [9]) | Activity (MCF7 [11]) | Activity (MCF7 [12]) Dose-dependent effect | Activity (MCF7 [14]) | Activity (MCF7 [16]) | Activity (MCF7 [17]) Dose-dependent effect | Activity (MCF7 [18]) Dose-dependent effect | inhibition [20] | inhibition [21] | inhibition (MCF7 [23]) tde | inhibition (MCF7 [24]) | inhibition (MCF7 [26]) Dose-dependent effect | inhibition [27] | inhibition [28] Dose-dependent effect | inhibition (MCF7 [29]) | Activity (MCF7 [30]) Dose-dependent effect | Activity (MCF7 [31]) Dose-dependent effect | Activity (MCF7 [32]) | inhibition (MCF7 [33]) Dose-dependent effect
89%: viability at 40 µM (MCF7 [19])
50%: viability at 60 µM (MCF7 [8])
inactive: inhibition (MCF7 [15])
475 µM: Ki [3]
732 µM: Ki (Caspase-3)
87%: viability at 20 µM (MCF7 [10])
